Experimental data published in patent publication US10597388B2, “Pyridazinone herbicides” (FMC CORPORATION, priority 2014, dated 2020).

Assays:
Experiment in all cases: Test C greenhouse herbicide test, pre- and postemergence
Type in all cases: in vivo
[1] = system: oilseed rape (Brassica napus)
Method in brief: (§1)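 Seeds sown in loam–sand blend treated preemergence; plants in peat-based medium sprayed postemergence at 2–18 cm (1- to 4-leaf stage); chemicals in non-phytotoxic solvent with surfactant. Greenhouse 13–15 d, then visual rating versus controls on 0–100 scale (0 no effect, 100 complete control).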

[2] = system: waterhemp (common waterhemp, Amaranthus rudis)
Method in brief: as §1

[3] = system: wheat (winter wheat, Triticum aestivum)
Method in brief: as §1

[4] = system: ryegrass, Italian (Italian ryegrass, Lolium multiflorum)
Method in brief: as §1

[5] = system: morningglory (Ipomoea coccinea)
Method in brief: as §1

corn (Zea mays) = system: corn (Zea mays)
Method in brief: as §1

[6] = system: ragweed (common ragweed, Ambrosia elatior)
Method in brief: as §1

[7] = system: foxtail, giant (giant foxtail, Setaria faberii)
Method in brief: as §1

[8] = system: galium (catchweed bedstraw, Galium aparine)
Method in brief: as §1

[9] = system: crabgrass, large (large crabgrass, Digitaria sanguinalis)
Method in brief: as §1

[10] = system: pigweed (Amaranthus retroflexus)
Method in brief: as §1

[11] = system: lambsquarters (Chenopodium album)
Method in brief: as §1

[12] = system: blackgrass (Alopecurus myosuroides)
Method in brief: as §1

[13] = system: barnyardgrass (Echinochloa crus-galli)
Method in brief: as §1

[14] = system: velvetleaf (Abutilon theophrasti)
Method in brief: as §1

[15] = Postemergence, 31 g ai/ha, scale 0 to 100 (0 no effect, 100 complete control)
[16] = Postemergence, 62 g ai/ha, 0 to 100 scale (0 no effect, 100 complete control)
[17] = Postemergence, 250 g ai/ha, scale 0 to 100, 0 no effect, 100 complete control, 13 to 15 d
[18] = Preemergence, 31 g ai/ha, scale 0 to 100, 0 is no effect, 100 is complete control
[19] = Preemergence, 62 g ai/ha, scale 0 to 100, 0 is no effect, 100 is complete control
[20] = Preemergence, 125 g ai/ha, scale 0 to 100, 0 is no effect, 100 is complete control
[21] = Preemergence, 250 g ai/ha, scale 0 to 100, 0 no effect, 100 complete control
[22] = postemergence, 125 g ai/ha, scale 0 to 100, 0 no effect, 100 complete control

SMILES: COC(=O)Oc1c(OC)nn(C)c(=O)c1-c1c(C)ccc2ccccc12 [Compound 136]
- Plant response rating, Oilseed Rape [1, 15]: 95
- Oilseed Rape plant response rating [1, 16]: 98
- Plant response rating, Oilseed Rape [1, 17]: 98
- Plant response rating, Oilseed Rape [1, 18]: 10
- Plant response rating, Oilseed Rape [1, 19]: 30
- Plant response rating, Oilseed Rape [1, 20]: 90
- Oilseed Rape plant response rating [1, 21]: 100
- Oilseed Rape plant response rating [1, 22]: 98
- Plant response rating, Waterhemp [2, 15]: 80
- Waterhemp plant response rating [2, 16]: 80
- Plant response rating, Waterhemp [2, 17]: 100
- Plant response rating, Waterhemp [2, 18]: 98
- Plant response rating, Waterhemp [2, 19]: 100
- Plant response rating, Waterhemp [2, 20]: 98
- Waterhemp plant response rating [2, 21]: 100
- Waterhemp plant response rating [2, 22]: 95
- Plant response rating, Wheat [3, 15]: 35
- Wheat plant response rating [3, 16]: 45
- Plant response rating, Wheat [3, 17]: 90
- Plant response rating, Wheat [3, 18]: 0
- Plant response rating, Wheat [3, 19]: 10
- Plant response rating, Wheat [3, 20]: 45
- Wheat plant response rating [3, 21]: 45
- Wheat plant response rating [3, 22]: 45
- Plant response rating, Ryegrass, Italian [4, 15]: 5
- Ryegrass, Italian plant response rating [4, 16]: 10
- Plant response rating, Ryegrass, Italian [4, 17]: 35
- Plant response rating, Ryegrass, Italian [4, 18]: 50
- Plant response rating, Ryegrass, Italian [4, 19]: 55
- Plant response rating, Ryegrass, Italian [4, 20]: 85
- Ryegrass, Italian plant response rating [4, 21]: 90
- Ryegrass, Italian plant response rating [4, 22]: 30
- Plant response rating, Morningglory [5, 15]: 98
- Morningglory plant response rating [5, 16]: 98
- Plant response rating, Morningglory [5, 17]: 100
- Plant response rating, Morningglory [5, 18]: 80
- Plant response rating, Morningglory [5, 19]: 95
- Plant response rating, Morningglory [5, 20]: 98
- Morningglory plant response rating [5, 21]: 98
- Morningglory plant response rating [5, 22]: 100
- Plant response rating, Corn (corn (Zea mays); [15]): 0
- Corn plant response rating (corn (Zea mays); [16]): 5
- Plant response rating, Corn (corn (Zea mays); [17]): 10
- Plant response rating, Corn (corn (Zea mays); [18]): 0
- Plant response rating, Corn (corn (Zea mays); [19]): 5
- Plant response rating, Corn (corn (Zea mays); [20]): 0
- Corn plant response rating (corn (Zea mays); [21]): 5
- Corn plant response rating (corn (Zea mays); [22]): 10
- Plant response rating, Ragweed [6, 15]: 0
- Ragweed plant response rating [6, 16]: 0
- Plant response rating, Ragweed [6, 17]: 5
- Plant response rating, Ragweed [6, 18]: 95
- Plant response rating, Ragweed [6, 19]: 98
- Plant response rating, Ragweed [6, 20]: 100
- Ragweed plant response rating [6, 21]: 100
- Ragweed plant response rating [6, 22]: 0
- Plant response rating, Foxtail, Giant [7, 15]: 35
- Foxtail, Giant plant response rating [7, 16]: 45
- Plant response rating, Foxtail, Giant [7, 17]: 90
- Plant response rating, Foxtail, Giant [7, 18]: 75
- Plant response rating, Foxtail, Giant [7, 19]: 85
- Plant response rating, Foxtail, Giant [7, 20]: 100
- Foxtail, Giant plant response rating [7, 21]: 98
- Foxtail, Giant plant response rating [7, 22]: 70
- Plant response rating, Galium [8, 15]: 90
- Galium plant response rating [8, 16]: 90
- Plant response rating, Galium [8, 17]: 95
- Plant response rating, Galium [8, 18]: 90
- Plant response rating, Galium [8, 19]: 98
- Plant response rating, Galium [8, 20]: 100
- Galium plant response rating [8, 21]: 100
- Galium plant response rating [8, 22]: 90
- Plant response rating, Crabgrass, Large [9, 15]: 10
- Crabgrass, Large plant response rating [9, 16]: 20
- Plant response rating, Crabgrass, Large [9, 17]: 35
- Plant response rating, Crabgrass, Large [9, 18]: 0
- Plant response rating, Crabgrass, Large [9, 19]: 5
- Plant response rating, Crabgrass, Large [9, 20]: 60
- Crabgrass, Large plant response rating [9, 21]: 95
- Crabgrass, Large plant response rating [9, 22]: 25
- Plant response rating, Pigweed [10, 15]: 75
- Pigweed plant response rating [10, 16]: 80
- Plant response rating, Pigweed [10, 17]: 98
- Plant response rating, Pigweed [10, 18]: 100
- Plant response rating, Pigweed [10, 19]: 100
- Plant response rating, Pigweed [10, 20]: 100
- Pigweed plant response rating [10, 21]: 100
- Pigweed plant response rating [10, 22]: 85
- Plant response rating, Lambsquarters [11, 15]: 90
- Lambsquarters plant response rating [11, 16]: 90
- Plant response rating, Lambsquarters [11, 17]: 100
- Plant response rating, Lambsquarters [11, 18]: 95
- Plant response rating, Lambsquarters [11, 19]: 90
- Plant response rating, Lambsquarters [11, 20]: 100
- Lambsquarters plant response rating [11, 21]: 100
- Lambsquarters plant response rating [11, 22]: 95
- Plant response rating, Blackgrass [12, 15]: 10
- Blackgrass plant response rating [12, 16]: 5
- Plant response rating, Blackgrass [12, 17]: 45
- Plant response rating, Blackgrass [12, 18]: 70
- Plant response rating, Blackgrass [12, 19]: 80
- Plant response rating, Blackgrass [12, 20]: 70
- Blackgrass plant response rating [12, 21]: 90
- Blackgrass plant response rating [12, 22]: 30
- Plant response rating, Barnyardgrass [13, 15]: 15
- Barnyardgrass plant response rating [13, 16]: 25
- Plant response rating, Barnyardgrass ([13]; Postemergence, 125 g ai/ha, scale 0 to 100, 0 is no effect, 100 is complete control): 35
- Plant response rating, Barnyardgrass [13, 17]: 40
- Plant response rating, Barnyardgrass [13, 18]: 25
- Plant response rating, Barnyardgrass [13, 19]: 50
- Plant response rating, Barnyardgrass [13, 20]: 90
- Barnyardgrass plant response rating [13, 21]: 95
- Plant response rating, Velvetleaf [14, 15]: 75
- Velvetleaf plant response rating [14, 16]: 95
- Plant response rating, Velvetleaf [14, 17]: 98
- Plant response rating, Velvetleaf [14, 18]: 75
- Plant response rating, Velvetleaf [14, 19]: 95
- Plant response rating, Velvetleaf [14, 20]: 100
- Velvetleaf plant response rating [14, 21]: 100
- Velvetleaf plant response rating [14, 22]: 90
